Reference: patent US20110195900A1, “PEPTIDIC PTH RECEPTOR AGONISTS” (FERRING B.V., priority 2008, published 2011)
Like-named read-outs stand apart in the source and are kept apart here. Non-standard residues stand in square brackets, D forms with d. Residues, ends and D or L forms follow the SMILES beside them. 1Nal = N[C@@H](Cc1cccc2ccccc12)C(=O)O; 2Nal = N[C@@H](Cc1ccc2ccccc2c1)C(=O)O; β3hI = CC[C@H](C)[C@H](N)CC(=O)O; β3hE = N[C@@H](CCC(=O)O)CC(=O)O; hSer = N[C@@H](CCO)C(=O)O; Nle = CCCC[C@H](N)C(=O)O; βAla = NCCC(=O)O

Target: T1, human PTH-1 receptor (Homo sapiens, UniProt Q03431)
T1 construct: expressed in transfected cells; host or cells: HEK-293
T1 sequence (Q03431 27-593): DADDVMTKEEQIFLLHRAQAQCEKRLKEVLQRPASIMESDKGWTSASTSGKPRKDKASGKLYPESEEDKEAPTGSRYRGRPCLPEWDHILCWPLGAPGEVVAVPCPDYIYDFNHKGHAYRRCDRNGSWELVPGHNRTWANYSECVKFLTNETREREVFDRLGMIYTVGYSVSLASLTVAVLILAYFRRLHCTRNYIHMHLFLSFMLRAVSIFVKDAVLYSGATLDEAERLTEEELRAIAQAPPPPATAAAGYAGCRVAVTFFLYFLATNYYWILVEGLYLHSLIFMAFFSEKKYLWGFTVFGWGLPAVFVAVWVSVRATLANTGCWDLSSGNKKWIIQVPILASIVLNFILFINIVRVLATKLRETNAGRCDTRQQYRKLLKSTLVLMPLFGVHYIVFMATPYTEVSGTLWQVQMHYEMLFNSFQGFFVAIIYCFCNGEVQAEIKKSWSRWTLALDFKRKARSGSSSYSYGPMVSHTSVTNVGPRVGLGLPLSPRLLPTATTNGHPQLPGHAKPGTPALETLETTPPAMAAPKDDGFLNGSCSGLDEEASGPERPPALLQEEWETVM
Assay: Reporter gene assay (CRE-luciferase) for agonist activity in transiently transfected HEK-293 cells
Type: cell-based
Settings: for hPTHR-2/hPTHR-1: ratio of EC50 values, selectivity for hPTH-1 receptor over hPTH-2 receptor
Protocol: Agonist activity of compounds on the human PTH-1 receptor was determined in a reporter gene assay by transiently transfecting HEK-293 cells with plasmids encoding human PTH-1 receptor under control of the SV40 promoter and a luciferase reporter gene under control of cAMP responsive elements (CRE). See Himmler et al, J. Recept. Res. 13 (1993) 79-94, for further guidance on this assay. Transfected cells were exposed to serial dilutions of compounds for 4-5 hours followed by lysis of cells, determination of luciferase activity, and determination of compound efficacies and EC50 values through non-linear regression.
PTH (1-34) was used as an internal control in each experiment and compounds were tested in at least three independent experiments. To determine selectivity, compounds were tested in luciferase-based transcriptional reporter gene assays expressing the human PTH-2 receptor.

| EC50 (Table 3, HEK-293 cells, CRE-luciferase, 4-5 hours exposure, read-out: hPTHR-1 EC50) | Structure (SMILES) | EC50 | hPTHR-2/hPTHR-1 (Table 3) |
| --- | --- | --- | --- |
| – | CCCC[C@H](NC(=O)[C@H](CC(C)C)NC(=O)[C@H](CCC(N)=O)NC(=O)[C@@H](NC(=O)[C@H](CCC(=O)O)NC(=O)[C@H](CO)NC(=O)[C@@H](NC(=O)[C@@H](N)CO)C(C)C)[C@@H](C)CC)C(=O)N[C@@H](Cc1c[nH]cn1)C(=O)N[C@@H](CC(N)=O)C(=O)N[C@@H](CC(C)C)C(=O)NCC(=O)N[C@@H](CCCCN)C(=O)N[C@@H](Cc1c[nH]cn1)C(=O)N[C@@H](CC(C)C)C(=O)N[C@@H](CC(N)=O)C(=O)N[C@@H](CO)C(=O)N[C@H](CC(=O)N[C@@H](CCC(=O)O)C(=O)N[C@@H](CCCNC(=N)N)C(=O)N[C@H](C(=O)N[C@@H](CCC(=O)O)C(=O)N[C@@H](Cc1cccc2ccccc12)C(=O)N[C@@H](CC(C)C)C(=O)N[C@@H](CCCNC(=N)N)C(=O)N[C@@H](CCCCN)C(=O)N[C@@H](CC(C)C)C(=O)N[C@@H](CC(C)C)C(=O)N[C@@H](CCC(N)=O)C(=O)N[C@@H](CC(=O)O)C(=O)N[C@H](C(=O)O)C(C)C)C(C)C)[C@@H](C)CC [SEQ ID NO: 10, [Nle^8, β-hIle^18,1-Nal^23, Leu^27] hPTH (1-31)-OH] (H-SVSEIQL[Nle]HNLGKHLNS[β3hI]ERVE[1Nal]LRKLLQDV-OH) | 0.09 nM | 811 |
| 0.22 nM | CCCC[C@H](NC(=O)CCNC(=O)[C@H](CC(N)=O)NC(=O)[C@H](CC(C)C)NC(=O)[C@H](Cc1c[nH]cn1)NC(=O)[C@H](CCCCN)NC(=O)CNC(=O)[C@H](CC(C)C)NC(=O)[C@H](CC(N)=O)NC(=O)[C@H](Cc1c[nH]cn1)NC(=O)[C@H](CCCC)NC(=O)[C@H](CC(C)C)NC(=O)[C@H](CCC(N)=O)NC(=O)[C@@H](NC(=O)[C@H](CCC(=O)O)NC(=O)[C@H](CO)NC(=O)[C@@H](NC(=O)[C@H](C)N)C(C)C)[C@@H](C)CC)C(=O)N[C@@H](CCC(=O)O)C(=O)N[C@@H](CCCNC(=N)N)C(=O)N[C@H](C(=O)N[C@@H](CCC(=O)O)C(=O)N[C@@H](Cc1ccc2ccccc2c1)C(=O)N[C@@H](CC(C)C)C(=O)N[C@@H](CCCNC(=N)N)C(=O)N[C@@H](CCCCN)C(=O)N[C@@H](CCCCN)C(=O)N[C@@H](CC(C)C)C(=O)N[C@@H](CCC(N)=O)C(=O)N[C@@H](CC(=O)O)C(=O)N[C@H](C(=O)N[C@@H](Cc1c[nH]cn1)C(=O)N[C@@H](CC(N)=O)C(=O)N[C@@H](Cc1ccccc1)C(N)=O)C(C)C)C(C)C [SEQ ID NO: 12, [Ala^1, Nle^8,18, β-Ala^17,2-Nal^23] hPTH (1-34)-NH2] (H-AVSEIQL[Nle]HNLGKHLN[βAla][Nle]ERVE[2Nal]LRKKLQDVHNF-NH2) | – | 430 |
| – | CCCC[C@H](NC(=O)CCNC(=O)[C@H](CC(N)=O)NC(=O)[C@H](CC(C)C)NC(=O)[C@H](Cc1c[nH]cn1)NC(=O)[C@H](CCCCN)NC(=O)CNC(=O)[C@H](CC(C)C)NC(=O)[C@H](CC(N)=O)NC(=O)[C@H](Cc1c[nH]cn1)NC(=O)[C@H](CCCC)NC(=O)[C@H](CC(C)C)NC(=O)[C@H](CCC(N)=O)NC(=O)[C@@H](NC(=O)[C@H](CCC(=O)O)NC(=O)[C@H](CO)NC(=O)[C@@H](NC(=O)[C@H](C)N)C(C)C)[C@@H](C)CC)C(=O)N[C@@H](CCC(=O)O)C(=O)N[C@@H](CCCNC(=N)N)C(=O)N[C@H](C(=O)N[C@@H](CCC(=O)O)C(=O)N[C@@H](Cc1cccc2ccccc12)C(=O)N[C@@H](CC(C)C)C(=O)N[C@@H](CCCNC(=N)N)C(=O)N[C@@H](CCCCN)C(=O)N[C@@H](CC(C)C)C(=O)N[C@@H](CC(C)C)C(=O)N[C@@H](CCC(N)=O)C(=O)N[C@@H](CC(=O)O)C(=O)N[C@H](C(=O)N[C@@H](Cc1c[nH]cn1)C(=O)N[C@@H](CC(N)=O)C(=O)N[C@@H](Cc1ccccc1)C(N)=O)C(C)C)C(C)C [SEQ ID NO: 14, [Ala^1, Nle^8,18, β-Ala^17,1-Nal^23, Leu^27] hPTH (1-34)-NH2] (H-AVSEIQL[Nle]HNLGKHLN[βAla][Nle]ERVE[1Nal]LRKLLQDVHNF-NH2; N-terminus assumed) | – | 449 |
| – | CCCC[C@H](NC(=O)CCNC(=O)[C@H](CC(N)=O)NC(=O)[C@H](CC(C)C)NC(=O)[C@H](Cc1c[nH]cn1)NC(=O)[C@H](CCCCN)NC(=O)CNC(=O)[C@H](CC(C)C)NC(=O)[C@H](CC(N)=O)NC(=O)[C@H](Cc1c[nH]cn1)NC(=O)[C@H](CCCC)NC(=O)[C@H](CC(C)C)NC(=O)[C@H](CCC(N)=O)NC(=O)[C@@H](NC(=O)[C@H](CCC(=O)O)NC(=O)[C@H](CO)NC(=O)[C@@H](NC(=O)[C@@H](N)CO)C(C)C)[C@@H](C)CC)C(=O)N[C@@H](CCC(=O)O)C(=O)N[C@@H](CCCNC(=N)N)C(=O)N[C@H](C(=O)N[C@@H](CCC(=O)O)C(=O)N[C@@H](Cc1cccc2ccccc12)C(=O)N[C@@H](CC(C)C)C(=O)N[C@@H](CCCNC(=N)N)C(=O)N[C@@H](CCCCN)C(=O)N[C@@H](CC(C)C)C(=O)N[C@@H](CC(C)C)C(=O)N[C@@H](CCC(N)=O)C(=O)N[C@@H](CC(=O)O)C(=O)N[C@H](C(=O)N[C@@H](Cc1c[nH]cn1)C(=O)N[C@@H](CC(N)=O)C(=O)N[C@@H](Cc1ccccc1)C(N)=O)C(C)C)C(C)C [SEQ ID NO: 15, [Nle^8,18, β-Ala^17,1-Nal^23, Leu^27] hPTH (1-34)-NH2] (H-SVSEIQL[Nle]HNLGKHLN[βAla][Nle]ERVE[1Nal]LRKLLQDVHNF-NH2) | 0.12 nM | 389 |
| – | CCCC[C@H](NC(=O)[C@H](CC(C)C)NC(=O)[C@H](CCC(N)=O)NC(=O)[C@@H](NC(=O)[C@H](CCC(=O)O)NC(=O)[C@H](CO)NC(=O)[C@@H](NC(=O)[C@@H](N)CO)C(C)C)[C@@H](C)CC)C(=O)N[C@@H](Cc1c[nH]cn1)C(=O)N[C@@H](CC(N)=O)C(=O)N[C@@H](CC(C)C)C(=O)NCC(=O)N[C@@H](CCCCN)C(=O)N[C@@H](Cc1c[nH]cn1)C(=O)N[C@@H](CC(C)C)C(=O)N[C@@H](CC(N)=O)C(=O)NCCC(=O)N[C@@H](CCOC)C(=O)N[C@@H](CCC(=O)O)C(=O)N[C@@H](CCCNC(=N)N)C(=O)N[C@H](C(=O)N[C@@H](CCC(=O)O)C(=O)N[C@@H](Cc1cccc2ccccc12)C(=O)N[C@@H](CC(C)C)C(=O)N[C@@H](CCCNC(=N)N)C(=O)N[C@@H](CCCCN)C(=O)N[C@@H](CC(C)C)C(=O)N[C@@H](CC(C)C)C(=O)N[C@@H](CCC(N)=O)C(=O)N[C@@H](CC(=O)O)C(=O)N[C@H](C(=O)N[C@@H](Cc1c[nH]cn1)C(=O)N[C@@H](CC(N)=O)C(=O)N[C@@H](Cc1ccccc1)C(N)=O)C(C)C)C(C)C [SEQ ID NO: 16, [Nle^8, β-Ala^17, hSer(OMe)^18,1-Nal^23, Leu^27] hPTH (1-34)-NH2] (H-SVSEIQL[Nle]HNLGKHLN[βAla][hSer](Me)ERVE[1Nal]LRKLLQDVHNF-NH2) | 0.13 nM | 719 |
| – | CCCC[C@H](NC(=O)[C@H](CO)NC(=O)[C@H](CC(N)=O)NC(=O)[C@H](CC(C)C)NC(=O)[C@H](Cc1c[nH]cn1)NC(=O)[C@H](CCCCN)NC(=O)CNC(=O)[C@H](CC(C)C)NC(=O)[C@H](CC(N)=O)NC(=O)[C@H](Cc1c[nH]cn1)NC(=O)[C@H](CCCC)NC(=O)[C@H](CC(C)C)NC(=O)[C@H](CCC(N)=O)NC(=O)[C@@H](NC(=O)[C@H](CCC(=O)O)NC(=O)[C@H](CO)NC(=O)[C@@H](NC(=O)[C@@H](N)CO)C(C)C)[C@@H](C)CC)C(=O)N[C@@H](CCC(=O)O)CC(=O)N[C@@H](CCCNC(=N)N)C(=O)N[C@H](C(=O)N[C@@H](CCC(=O)O)C(=O)N[C@@H](Cc1cccc2ccccc12)C(=O)N[C@@H](CC(C)C)C(=O)N[C@@H](CCCNC(=N)N)C(=O)N[C@@H](CCCCN)C(=O)N[C@@H](CC(C)C)C(=O)N[C@@H](CC(C)C)C(=O)N[C@@H](CCC(N)=O)C(=O)N[C@@H](CC(=O)O)C(=O)N[C@H](C(=O)N[C@@H](Cc1c[nH]cn1)C(=O)N[C@@H](CC(N)=O)C(=O)N[C@@H](Cc1ccccc1)C(N)=O)C(C)C)C(C)C [SEQ ID NO: 20, [Nle^8,18, β-hGlu^19,1-Nal^23, Leu^27] hPTH (1-34)-NH2] (H-SVSEIQL[Nle]HNLGKHLNS[Nle][β3hE]RVE[1Nal]LRKLLQDVHNF-NH2; N-terminus assumed) | – | 91 |
